A short description of test [1]: Kinetic constant of the enzyme activity was determined by incorporation of [14C]- fucose as a function of acceptor concentration.
For test [2], the species on record is Homo sapiens. Nature of the test: (§1) Percentage of fucosyltransferase accepted by the compound in alpha-L-(1-3) fucosyltransferase assay using [14C]fucose as a ligand. It is filed as functional.
The species named for test [3] is Homo sapiens. Nature of the test: Relative activity was determined at 0.3 mM of compound in ovarian cancer sera in alpha-L-(1-3) fucosyltransferase assay using [14C]-fucose as a ligand. It is filed as functional.
For test [4], the system named is Ovarian carcinoma cell. Nature of the test: Relative activity was determined at 0.3 mM of compound in ovarian-tumor extract in alpha-L-(1-3) fucosyltransferase assay using [14C]fucose as a ligand. It is filed as functional, Homo sapiens.
Test [5] relates to Ovarian carcinoma cell. The description is as §1. It is filed as functional, Homo sapiens.
In test [6] the test system is Ovarian carcinoma cell. Nature of the test: Percentage of fucosyltransferase accepted by the compound in alpha-L-(1-3) fucosyltransferase assay using [14C]-fucose as a ligand. It is filed as functional, Homo sapiens.
For test [7], the species on record is Homo sapiens. The test is described as follows: Percentage of fucosyltransferase accepted by the compound in alpha-L-(1-3) fucosyltransferase assay using [14C]fucose as a ligand;=. It is filed as functional.

For the molecule `CO[C@H]1[C@H](O[C@H]2[C@H](O)[C@@H](NC(C)=O)[C@H](OCc3ccccc3)O[C@@H]2CO)O[C@H](CO)[C@H](O)[C@@H]1O`, the Km in test [1] is 440 µM. Also, the Relative activity in the test listed under Homo sapiens [2] is 308%; in the test filed under Homo sapiens [3], 5330 c.p.m; in the test on Ovarian carcinoma cell [4], 14924 c.p.m; with Ovarian carcinoma cell [5], 375%.
Consider `CO[C@H]1[C@H](O[C@H]2[C@H](O)[C@@H](NC(C)=O)C(O)O[C@@H]2CO)O[C@H](CO)[C@H](O)[C@@H]1O` (stereo partly specified), for which the Michaelis-Menten constant (Km) in test [1] stood at 1330 µM. Besides, the Relative activity in the test listed under Homo sapiens [2] was found to be 100%; in the test filed under Homo sapiens [3], 1730 c.p.m; in the test with Ovarian carcinoma cell [6], 100%; with Ovarian carcinoma cell [4], 3977 c.p.m.
Regarding `CC(=O)N[C@@H]1[C@@H](O)[C@H](O[C@@H]2O[C@H](CO)[C@H](O)[C@H](O)[C@H]2O)[C@@H](CO)O[C@H]1O`, the figures for the Relative activity in the test listed under Homo sapiens [3] and in the test on Ovarian carcinoma cell [4] were 1620 c.p.m and 5024 c.p.m, respectively.
For `CC(=O)N[C@@H]1[C@@H](O)[C@H](O[C@@H]2O[C@H](CO)[C@H](O)[C@H](O)[C@H]2O[C@@H]2O[C@@H](C)[C@@H](O)[C@@H](O)[C@@H]2O)[C@@H](CO)O[C@H]1O`, the Relative activity in the test filed under Homo sapiens [2] stood at 100%; in the test listed under Homo sapiens [3] it was 4380 c.p.m; with Ovarian carcinoma cell [4] it was 18291 c.p.m; in the test on Ovarian carcinoma cell [5], 100%.
As to `CC(=O)N[C@H]1[C@H](OCc2ccccc2)O[C@H](CO)[C@@H](O[C@@H]2O[C@H](CO)[C@H](O)[C@H](O)[C@H]2O[C@@H]2O[C@@H](C)[C@@H](O)[C@@H](O)[C@@H]2O)[C@@H]1O`, the Michaelis-Menten constant (Km) in test [1] was 260 µM. For the same molecule, the Relative activity in the test listed under Homo sapiens [7] is 168%; in the test listed under Homo sapiens [3], 7350 c.p.m; with Ovarian carcinoma cell [6] it was 233%; in the test with Ovarian carcinoma cell [4] it was 42580 c.p.m.
